Test results: US5693815A, “Peptides” (Schering Corporation, priority 1995, dated 1997)

Biological target: HIV-1 protease (Human immunodeficiency virus type 1 group M subtype B, UniProt P04585)
Test: Inhibition of proteolytic activity of HIV-1 protease, Test 1 (method of Louis et al.)
Format: biochemical
Excerpt: TEST 1--INHIBITION OF PROTEOLYTIC ACTIVITY OF HIV-1-PROTEASE
The ability of compounds of the invention to inhibit the proteolytic activity of HIV-1 protease can be determined by using the method of Louis, et al., Biochem. Biophys. Res. Comm. 159:87-94, (1989), which is herein incorporated by reference. In using the method of Louis et al., HIV Substrate III, His-Lys-Ala-Arg-Val-Leu-pNO2 Phe-Glu-Ala-Nle-Ser-NH2 purchased from Bachem Bioscience, Inc. Philadelphia, Pa. can be used in place of the nonapeptide substrate […]amide.

For `CC(C)(C)NC(=O)c1ccccc1SCC(O)C(Cc1ccccc1)NC(=O)C1CC2CCCCC2N1C(=O)OC(C)(C)C` (stereo not shown) [U, 1-[(1,1-dimethylethoxy)carbonyl]-N-[3-[[2-[[(1,1-dimethylethyl)amino]carbonyl]phenyl]thio]-2(R and/or S)-hydroxy-1(R and/or S)-(phenylmethyl)-propyl]octahydroindole-2-carboxamide], the IC50 was 38 µM.
